The source made the active and inactive calls.
Key:
Phospholipase D2 = Phospholipase D2 (Homo sapiens, UniProt O14939); assay: cellular phospholipase D2 inhibition IC50 – cell-based, dose response (AID 602147); type: functional;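 note: cellular assay in HEK293 cells overexpressing GFP-tagged PLD2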
Phospholipase D1 = target: T1, Phospholipase D1 (Homo sapiens, UniProt Q13393); assay: cellular phospholipase D1 inhibition IC50 – cell-based, dose response (AID 602151); type: functional;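 note: cellular PLD1 assay in Calu-1 cells stimulated with PMA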
T1 sequence (Q13393 whole entry): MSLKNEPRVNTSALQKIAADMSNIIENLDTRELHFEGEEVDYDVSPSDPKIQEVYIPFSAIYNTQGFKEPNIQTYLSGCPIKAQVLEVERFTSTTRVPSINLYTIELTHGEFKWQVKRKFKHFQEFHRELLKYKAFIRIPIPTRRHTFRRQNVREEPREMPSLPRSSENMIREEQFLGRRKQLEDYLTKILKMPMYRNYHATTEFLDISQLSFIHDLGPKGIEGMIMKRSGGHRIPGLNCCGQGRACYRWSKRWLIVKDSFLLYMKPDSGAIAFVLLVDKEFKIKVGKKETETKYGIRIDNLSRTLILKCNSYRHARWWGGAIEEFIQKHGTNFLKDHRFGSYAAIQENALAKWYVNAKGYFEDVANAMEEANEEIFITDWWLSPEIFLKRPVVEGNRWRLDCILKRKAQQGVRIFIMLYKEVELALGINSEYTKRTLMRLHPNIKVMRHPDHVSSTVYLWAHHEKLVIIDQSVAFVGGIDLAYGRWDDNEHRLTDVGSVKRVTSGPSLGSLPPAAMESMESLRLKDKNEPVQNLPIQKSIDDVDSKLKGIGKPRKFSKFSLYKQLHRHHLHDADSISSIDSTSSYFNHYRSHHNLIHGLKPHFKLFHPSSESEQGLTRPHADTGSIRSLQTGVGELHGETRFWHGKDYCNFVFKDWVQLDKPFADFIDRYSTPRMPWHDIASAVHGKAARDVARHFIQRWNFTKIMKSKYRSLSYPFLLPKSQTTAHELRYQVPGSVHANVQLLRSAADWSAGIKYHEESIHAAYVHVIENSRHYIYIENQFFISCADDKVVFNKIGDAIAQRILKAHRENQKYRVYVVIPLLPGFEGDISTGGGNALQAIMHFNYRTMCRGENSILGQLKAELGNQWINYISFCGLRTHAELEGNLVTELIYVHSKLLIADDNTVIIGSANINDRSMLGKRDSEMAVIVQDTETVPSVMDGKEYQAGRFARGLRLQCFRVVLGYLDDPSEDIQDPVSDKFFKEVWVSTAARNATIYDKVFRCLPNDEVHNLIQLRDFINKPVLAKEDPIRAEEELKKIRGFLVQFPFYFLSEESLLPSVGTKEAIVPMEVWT

HEK293 = assay: cells; conditions: Homo sapiens;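 note: cells exposed to compound for 14 hours overnight before viability readout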
Tumor necrosis factor = Tumor necrosis factor (Homo sapiens, UniProt P01375); assay: analog potency on TNFa NF-kB signaling – cell-based, revised, SAR follow-up (AID 2337); type: functional
Sequence of Tumor necrosis factor (P01375 whole entry, the tested form may be a part): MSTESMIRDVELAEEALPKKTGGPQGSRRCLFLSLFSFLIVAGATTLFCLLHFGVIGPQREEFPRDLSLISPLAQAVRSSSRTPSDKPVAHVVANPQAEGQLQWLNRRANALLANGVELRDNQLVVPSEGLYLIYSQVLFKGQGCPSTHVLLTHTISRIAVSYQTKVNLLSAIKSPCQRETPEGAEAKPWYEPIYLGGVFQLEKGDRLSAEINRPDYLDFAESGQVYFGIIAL

[1] = target: T2, Nucleotide-binding oligomerization domain-containing protein 1 (Homo sapiens, UniProt Q9Y239); assay: blockers of NOD1 pathway activity – revised, SAR follow-up (AID 2333); type: functional
T2 sequence (Q9Y239 whole entry): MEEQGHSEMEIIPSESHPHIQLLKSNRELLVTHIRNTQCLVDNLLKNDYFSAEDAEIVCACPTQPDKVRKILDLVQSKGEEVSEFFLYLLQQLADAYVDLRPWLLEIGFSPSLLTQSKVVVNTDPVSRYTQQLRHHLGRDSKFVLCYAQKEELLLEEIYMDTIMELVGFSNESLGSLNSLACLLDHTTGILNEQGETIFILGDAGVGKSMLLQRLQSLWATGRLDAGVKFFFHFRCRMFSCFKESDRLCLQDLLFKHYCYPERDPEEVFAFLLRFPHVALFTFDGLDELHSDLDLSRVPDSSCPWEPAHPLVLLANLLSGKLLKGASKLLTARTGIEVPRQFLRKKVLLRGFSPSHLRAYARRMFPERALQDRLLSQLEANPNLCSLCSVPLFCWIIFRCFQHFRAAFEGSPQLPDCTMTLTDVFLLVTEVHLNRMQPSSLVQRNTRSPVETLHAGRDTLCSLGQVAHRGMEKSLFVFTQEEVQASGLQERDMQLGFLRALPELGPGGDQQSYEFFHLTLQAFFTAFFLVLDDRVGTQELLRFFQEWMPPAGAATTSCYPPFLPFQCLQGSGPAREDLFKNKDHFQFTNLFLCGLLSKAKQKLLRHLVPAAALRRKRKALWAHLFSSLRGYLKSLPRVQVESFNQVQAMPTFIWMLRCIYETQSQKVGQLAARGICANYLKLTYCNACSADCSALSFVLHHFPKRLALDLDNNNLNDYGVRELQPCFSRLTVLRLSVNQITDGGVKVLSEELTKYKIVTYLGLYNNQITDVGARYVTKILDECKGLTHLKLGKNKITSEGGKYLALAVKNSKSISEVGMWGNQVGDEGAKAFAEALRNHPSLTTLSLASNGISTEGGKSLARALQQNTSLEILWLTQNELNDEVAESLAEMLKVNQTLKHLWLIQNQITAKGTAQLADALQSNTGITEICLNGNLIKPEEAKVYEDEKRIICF

Albumin = Albumin (Bos taurus, UniProt P02769); assay: Counterscreen for inhibitors of T-cell receptor (TCR)-CD3 interaction: Fluorescence-based biochemical high throughput dose response assay to identify inhibitors of T-cell receptor (TCR)-CD3 interaction using a TAMRA-labeled BSA probe.; type: functional
Sequence of Albumin (P02769 whole entry): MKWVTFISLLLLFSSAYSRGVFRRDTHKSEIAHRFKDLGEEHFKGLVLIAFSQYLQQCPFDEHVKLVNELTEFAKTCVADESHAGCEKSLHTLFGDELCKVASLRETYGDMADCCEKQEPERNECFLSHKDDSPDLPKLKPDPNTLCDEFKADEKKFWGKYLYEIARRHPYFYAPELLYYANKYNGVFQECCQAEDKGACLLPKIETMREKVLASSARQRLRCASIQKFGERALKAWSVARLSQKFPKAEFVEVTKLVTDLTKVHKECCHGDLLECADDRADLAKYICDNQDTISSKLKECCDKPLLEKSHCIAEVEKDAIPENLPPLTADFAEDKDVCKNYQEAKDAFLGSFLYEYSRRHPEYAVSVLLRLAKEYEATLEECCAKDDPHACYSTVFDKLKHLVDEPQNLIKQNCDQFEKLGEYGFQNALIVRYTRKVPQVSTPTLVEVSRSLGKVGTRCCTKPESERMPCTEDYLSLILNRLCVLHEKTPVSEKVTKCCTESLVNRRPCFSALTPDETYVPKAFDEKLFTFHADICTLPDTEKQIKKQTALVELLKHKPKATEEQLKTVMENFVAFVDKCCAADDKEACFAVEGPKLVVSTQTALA

Exodeoxyribonuclease V = target: T3, Exodeoxyribonuclease V (Escherichia coli (strain K12), UniProt P04993+P07648+P08394); assay: RecBCD inhibition via phage-restricted bacterial growth – absorbance, V66 E. coli, mutant T4 phage, counter-screen for AddAB inhibitor project, dose response (AID 492957); type: functional, cell-based, Escherichia coli str. K-12 substr. MG1655
T3 sequence (P04993 whole entry): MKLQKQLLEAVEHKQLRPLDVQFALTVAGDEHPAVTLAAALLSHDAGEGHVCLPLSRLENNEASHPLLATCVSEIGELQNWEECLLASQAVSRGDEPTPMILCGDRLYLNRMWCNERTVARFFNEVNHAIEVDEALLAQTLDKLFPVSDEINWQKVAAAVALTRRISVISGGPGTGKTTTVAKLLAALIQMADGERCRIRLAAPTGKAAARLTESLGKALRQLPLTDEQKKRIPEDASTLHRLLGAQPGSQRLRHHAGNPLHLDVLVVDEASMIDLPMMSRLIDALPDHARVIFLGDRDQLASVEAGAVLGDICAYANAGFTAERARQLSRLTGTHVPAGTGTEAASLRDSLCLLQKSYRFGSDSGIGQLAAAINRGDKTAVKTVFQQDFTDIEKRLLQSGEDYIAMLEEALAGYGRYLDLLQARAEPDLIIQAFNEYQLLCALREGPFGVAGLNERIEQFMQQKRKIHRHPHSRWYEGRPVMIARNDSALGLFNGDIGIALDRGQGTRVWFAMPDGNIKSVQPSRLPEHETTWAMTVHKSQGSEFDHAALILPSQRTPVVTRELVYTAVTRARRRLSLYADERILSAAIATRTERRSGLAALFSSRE
T3 sequence (P07648 whole entry): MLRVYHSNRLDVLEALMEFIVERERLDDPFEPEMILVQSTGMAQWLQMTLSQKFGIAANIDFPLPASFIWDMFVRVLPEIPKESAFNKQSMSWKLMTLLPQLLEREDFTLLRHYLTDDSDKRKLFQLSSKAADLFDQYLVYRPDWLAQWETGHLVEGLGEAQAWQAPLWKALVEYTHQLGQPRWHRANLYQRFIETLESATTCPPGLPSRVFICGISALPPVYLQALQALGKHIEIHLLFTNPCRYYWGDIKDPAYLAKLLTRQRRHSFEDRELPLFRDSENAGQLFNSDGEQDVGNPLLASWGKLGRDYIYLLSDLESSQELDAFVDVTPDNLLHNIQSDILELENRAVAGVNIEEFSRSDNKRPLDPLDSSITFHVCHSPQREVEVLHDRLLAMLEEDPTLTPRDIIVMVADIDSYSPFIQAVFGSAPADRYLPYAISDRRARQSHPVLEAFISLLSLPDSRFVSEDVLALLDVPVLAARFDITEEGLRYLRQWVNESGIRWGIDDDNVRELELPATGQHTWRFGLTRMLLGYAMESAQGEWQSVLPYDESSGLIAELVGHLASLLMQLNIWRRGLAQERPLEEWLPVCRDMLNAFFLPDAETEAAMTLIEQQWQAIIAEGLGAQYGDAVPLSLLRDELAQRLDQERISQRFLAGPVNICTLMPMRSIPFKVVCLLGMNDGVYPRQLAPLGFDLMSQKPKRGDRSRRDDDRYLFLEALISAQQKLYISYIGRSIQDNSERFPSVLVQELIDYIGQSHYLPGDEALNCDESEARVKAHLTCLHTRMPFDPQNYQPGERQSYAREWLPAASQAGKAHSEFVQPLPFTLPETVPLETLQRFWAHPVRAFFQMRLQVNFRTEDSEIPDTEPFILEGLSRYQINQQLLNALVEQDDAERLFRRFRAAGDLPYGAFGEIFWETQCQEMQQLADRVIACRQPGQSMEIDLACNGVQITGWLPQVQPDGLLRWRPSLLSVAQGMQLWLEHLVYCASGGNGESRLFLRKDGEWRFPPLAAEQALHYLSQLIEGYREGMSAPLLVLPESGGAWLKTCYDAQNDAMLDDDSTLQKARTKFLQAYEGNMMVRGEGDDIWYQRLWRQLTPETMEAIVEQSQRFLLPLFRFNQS
T3 sequence (P08394 whole entry): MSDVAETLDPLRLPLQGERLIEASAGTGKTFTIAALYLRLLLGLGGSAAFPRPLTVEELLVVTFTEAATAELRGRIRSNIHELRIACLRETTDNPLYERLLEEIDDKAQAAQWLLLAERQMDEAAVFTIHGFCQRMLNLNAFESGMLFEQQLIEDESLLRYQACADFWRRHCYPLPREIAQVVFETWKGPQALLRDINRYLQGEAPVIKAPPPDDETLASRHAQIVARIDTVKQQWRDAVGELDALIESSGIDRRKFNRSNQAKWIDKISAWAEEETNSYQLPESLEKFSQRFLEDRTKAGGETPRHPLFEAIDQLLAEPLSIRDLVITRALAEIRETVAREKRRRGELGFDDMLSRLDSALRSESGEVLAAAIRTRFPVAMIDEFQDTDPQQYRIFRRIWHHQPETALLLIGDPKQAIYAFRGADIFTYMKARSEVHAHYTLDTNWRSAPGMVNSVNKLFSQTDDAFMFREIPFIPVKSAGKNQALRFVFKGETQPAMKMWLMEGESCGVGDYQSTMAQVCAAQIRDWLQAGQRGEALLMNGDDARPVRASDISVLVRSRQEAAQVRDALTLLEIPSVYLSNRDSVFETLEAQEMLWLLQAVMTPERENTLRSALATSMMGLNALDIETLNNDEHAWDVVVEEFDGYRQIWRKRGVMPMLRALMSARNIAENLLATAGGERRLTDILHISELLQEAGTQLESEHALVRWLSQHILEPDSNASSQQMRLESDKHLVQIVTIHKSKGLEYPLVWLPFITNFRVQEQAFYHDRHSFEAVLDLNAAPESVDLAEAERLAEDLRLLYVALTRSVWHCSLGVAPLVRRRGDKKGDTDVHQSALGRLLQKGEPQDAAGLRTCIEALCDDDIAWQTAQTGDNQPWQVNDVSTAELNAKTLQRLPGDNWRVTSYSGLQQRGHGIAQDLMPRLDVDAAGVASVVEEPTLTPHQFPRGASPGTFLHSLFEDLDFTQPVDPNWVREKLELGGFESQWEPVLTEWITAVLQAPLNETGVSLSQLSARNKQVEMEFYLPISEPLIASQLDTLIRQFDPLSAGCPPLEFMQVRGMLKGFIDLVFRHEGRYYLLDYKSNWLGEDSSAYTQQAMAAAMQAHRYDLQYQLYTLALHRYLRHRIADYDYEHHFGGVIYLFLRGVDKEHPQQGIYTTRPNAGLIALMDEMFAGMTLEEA

[2] = Counterscreen for AddAB inhibitors: absorbance-based bacterial cell-based high throughput dose response assay for inhibitors of bacterial viability. [Related pubchem assays (depositor defined):AID435030, AID449728, AID449731, AID488942, AID488955, AID488956]; type: functional
SUMO-activating enzyme [3] = target: T4, SUMO-activating enzyme (Homo sapiens, UniProt Q9UBT2); assay: blockers of UBC9-mediated SUMO conjugation – biochemical, AlphaScreen, SUMOylation inhibitor project, confirmation (AID 2018); type: functional
T4 sequence (Q9UBE0 whole entry): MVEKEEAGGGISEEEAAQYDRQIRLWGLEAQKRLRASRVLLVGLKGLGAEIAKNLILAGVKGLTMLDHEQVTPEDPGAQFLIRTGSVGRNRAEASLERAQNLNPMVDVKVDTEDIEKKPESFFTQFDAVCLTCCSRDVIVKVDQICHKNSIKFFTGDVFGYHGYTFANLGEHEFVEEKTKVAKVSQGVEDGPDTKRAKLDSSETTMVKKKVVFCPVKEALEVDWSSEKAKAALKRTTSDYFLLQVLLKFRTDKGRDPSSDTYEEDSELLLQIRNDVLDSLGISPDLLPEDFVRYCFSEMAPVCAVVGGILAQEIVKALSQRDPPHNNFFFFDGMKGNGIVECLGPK
T4 sequence (Q9UBT2 whole entry): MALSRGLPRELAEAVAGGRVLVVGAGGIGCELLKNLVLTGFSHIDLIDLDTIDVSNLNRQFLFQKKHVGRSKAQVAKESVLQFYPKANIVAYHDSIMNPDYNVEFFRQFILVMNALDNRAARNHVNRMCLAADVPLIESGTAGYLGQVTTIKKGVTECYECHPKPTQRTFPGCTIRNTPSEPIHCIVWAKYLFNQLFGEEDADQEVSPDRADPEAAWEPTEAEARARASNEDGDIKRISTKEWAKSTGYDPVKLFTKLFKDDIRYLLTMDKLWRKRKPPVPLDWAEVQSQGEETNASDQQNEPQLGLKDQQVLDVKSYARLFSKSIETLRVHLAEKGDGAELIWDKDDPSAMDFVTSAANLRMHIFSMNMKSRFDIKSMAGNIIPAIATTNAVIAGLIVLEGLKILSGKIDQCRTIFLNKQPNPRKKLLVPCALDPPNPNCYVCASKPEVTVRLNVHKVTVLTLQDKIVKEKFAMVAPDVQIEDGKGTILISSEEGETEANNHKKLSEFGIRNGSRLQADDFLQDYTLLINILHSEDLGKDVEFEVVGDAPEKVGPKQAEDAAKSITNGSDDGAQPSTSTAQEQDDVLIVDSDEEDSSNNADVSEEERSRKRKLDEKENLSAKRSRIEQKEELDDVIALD

SUMO-activating enzyme [4] = target: T4, SUMO-activating enzyme; assay: blockers of SAE1/SAE2–UBC9 SUMO transfer – biochemical, HTRF, uHTS, primary screen (AID 2006); type: protein-complex assay
HeLa = assay: ATP-based viability loss in HeLa cells – cell-based, CellTiter-Glo luminescence, cherry-pick samples, cytotoxicity control for MITF activator project, dose response (AID 540259); type: functional; conditions: Homo sapiens
Escherichia coli = assay: microbe, parasite or virus in culture

Sequence of Phospholipase D2 (O14939 whole entry): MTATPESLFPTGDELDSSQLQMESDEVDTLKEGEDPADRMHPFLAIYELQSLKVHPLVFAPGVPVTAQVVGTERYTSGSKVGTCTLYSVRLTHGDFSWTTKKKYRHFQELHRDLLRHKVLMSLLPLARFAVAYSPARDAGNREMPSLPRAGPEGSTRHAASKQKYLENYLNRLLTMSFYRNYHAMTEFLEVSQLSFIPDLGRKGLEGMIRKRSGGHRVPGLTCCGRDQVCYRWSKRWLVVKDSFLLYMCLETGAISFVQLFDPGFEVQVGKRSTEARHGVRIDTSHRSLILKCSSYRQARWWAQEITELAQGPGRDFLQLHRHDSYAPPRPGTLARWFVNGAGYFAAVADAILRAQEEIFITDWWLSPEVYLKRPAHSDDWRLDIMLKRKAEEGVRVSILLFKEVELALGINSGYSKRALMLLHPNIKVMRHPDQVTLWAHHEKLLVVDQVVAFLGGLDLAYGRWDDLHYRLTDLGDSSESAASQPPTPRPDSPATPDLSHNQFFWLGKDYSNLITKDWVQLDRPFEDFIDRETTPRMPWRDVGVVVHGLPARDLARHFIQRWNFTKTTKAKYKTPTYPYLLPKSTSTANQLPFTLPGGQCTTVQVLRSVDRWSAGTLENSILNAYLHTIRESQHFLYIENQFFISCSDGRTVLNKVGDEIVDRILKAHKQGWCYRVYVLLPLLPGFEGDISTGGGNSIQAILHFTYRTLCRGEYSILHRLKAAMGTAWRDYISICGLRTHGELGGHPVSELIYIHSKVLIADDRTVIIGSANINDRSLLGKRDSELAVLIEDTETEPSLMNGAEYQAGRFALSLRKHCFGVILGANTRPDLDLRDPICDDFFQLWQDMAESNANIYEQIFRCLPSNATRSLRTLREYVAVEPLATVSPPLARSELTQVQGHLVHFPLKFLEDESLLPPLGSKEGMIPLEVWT

C[C@@H](CN1CCC(n2c(=O)[nH]c3cc(I)ccc32)CC1)NC(=O)c1ccc2ccccc2c1
IC50 (Phospholipase D2): 6.37 µM (active) | IC50 (Phospholipase D1): 0.028 µM (active)

C[C@@H](CN1CCC(n2c(=O)[nH]c3ccccc32)CC1)NC(=O)c1cc2ccccc2s1
IC50 (Phospholipase D2): 0.22 µM (active) | IC50 (Phospholipase D1): 0.002 µM (active)

CC(=O)N1c2ccc(S(=O)(=O)N3CCN(c4ccc(Cl)cc4)CC3)cc2CC1C (stereo unspecified)
IC50 (HEK293): > 20 µM (inactive) | IC50 (Tumor necrosis factor): 5.76 µM (active) | IC50 [1]: 2.57 µM (active)

COc1cccc(/C=C2/SC(=S)N(CC(=O)NNC(=O)c3ccccc3O)C2=O)c1
IC50 (Albumin): > 94.1 µM (inactive) | IC50 (Exodeoxyribonuclease V): > 119 µM (inactive) | IC50 [2]: > 119 µM (inactive) | IC50 (SUMO-activating enzyme [3]): 29.4 µM (active) | IC50 (SUMO-activating enzyme [4]): 11.8 µM (active)

Cc1ccc(C(=O)N(CCN2CCCCC2)CC2CCCN(C3CCCC3)C2)s1 (stereo unspecified)
AC50 (HeLa): 72.6 µM (active)

CCc1ccc(-c2cn3nc(-c4ccccc4)cnc3n2)cc1
AC50 (HeLa): 241 µM (active)

COc1cccc(C(=O)Nc2ccc(NC(=O)C3CC3)cn2)c1
AC50 (HeLa): 122 µM (active)

C[C@H](NC(=O)c1[nH]cnc1C(=O)NCCCCCNC(=O)OC(C)(C)C)c1ccccc1
AC50 (Escherichia coli): 63.8 µM (active)

Reference: ChEMBL document CHEMBL1201862, “PubChem BioAssay data set” (2004)
